Read-outs that look alike come from different tables or passages of the source.
Assays:
hKCNQ2/3 = target: T1, hKCNQ2/3 (Homo sapiens, UniProt O43525+O43526); experiment: cell-based
T1 construct: expressed in transfected cells; host or cells: CHO
Description: Test Method 1: hKCNQ2/3 Thallium Flux Assay
Test Objective: To test the in vitro concentration-response relationship of compounds using FLIPR thallium flux assay in CHO cell lines stably expressing hKCNQ2/3.
According to the split ratio, the cells were transferred to another T-75 flask containing complete cell growth medium. Note: To maintain logarithmic growth, the cells should be kept in a subconfluent monolayer state. Based on the cell doubling time, the cells were passaged every 2-3 days.
• (1) Day 1 - Cell preparation: Cells were digested as described above, and cell density and viability were determined using a Cell Countess. The volume of the single-cell suspension was adjusted with complete cell growth medium. Then, hKCNQ2/3_CHO cells were seeded onto PDL-precoated 384-well plates at a density of approximately 20,000 cells/well (30 µL/well). The plates were then incubated overnight in a 37°C, 5% CO2 humidified air incubator. • (2) Day 2 - Compound preparation: Test compounds were diluted with dimethyl sulfoxide (DMSO) to stock concentrations and stored in a -20°C freezer. A compound addition program was set up on the ECHO liquid handler, and compounds were added to the plates using the ECHO liquid handler. Retigabine (RTG) was used as a positive control at a highest concentration of 100 µM with 3-fold serial dilutions for a total of 9 doses. Buffer containing 5 mM K^+ and 1 mM Tl^+ was added to the plates. Notes: 1) K2SO4 and Tl2SO4 were prepared in 1× chloride-free buffer. Depending on the voltage-gated potassium channel involved, the concentrations of Tl^+ and K^+ should be adjusted. Tl^+ concentration is approximately 0.5-5 mM, and K^+ concentration is approximately 5-30 mM. 2) Each 1 mM solution of K2SO4 and Tl2SO4 contains 2 mM K^+ and Tl^+; the final concentration should be calculated based on the ion concentration. 3) TlCl readily precipitates and a chloride-free buffer is required. • (3) Day 2 -Assay testing: Once the cells reached the desired confluence, the cell assay plates were removed from the incubator. Assay buffer and diluted Tl^+ dye (Molecular Devices # R8222) were prepared. The medium was discarded using a Bravo liquid handler, and 25 µL of Tl^+ dye was added to each well. After 1 hour of incubation, the cell assay plates, composite plates and FLIPR tips were placed in the FLIPR^TETRA (Molecular Devices, USA) for FLIPR detection. After setting up the tips, baseline readings were taken for 60 seconds, then 12.5 µL was added from the composite plate (3×) to the cell assay plate, and data were recorded for at least 5 minutes. • (4) Data processing: Maximum signals were generated by the FLIPR software. […] Data quality control: S/B > 2.00, Z factor > 0.50.
• (1) Day 1 - Cell preparation: Cells were digested as described above, and cell density and viability were determined using a Cell Countess. The volume of the single-cell suspension was adjusted with complete cell growth medium. Then, hKCNQ2/3_CHO cells were seeded onto PDL-precoated 384-well plates at a density of approximately 20,000 cells/well (30 µL/well). The plates were then incubated overnight in a 37°C, 5% CO2 humidified air incubator. • (2) Day 2 - Compound preparation: Test compounds were diluted with dimethyl sulfoxide (DMSO) to stock concentrations and stored in a -20°C freezer. A compound addition program was set up on the ECHO liquid handler, and compounds were added to the plates using the ECHO liquid handler. Retigabine (RTG) was used as a positive control at a highest concentration of 100 µM with 3-fold serial dilutions for a total of 9 doses. Buffer containing 5 mM K^+ and 1 mM Tl^+ was added to the plates. Notes: 1) K2SO4 and Tl2SO4 were prepared in 1× chloride-free buffer. Depending on the voltage-gated potassium channel involved, the concentrations of Tl^+ and K^+ should be adjusted. Tl^+ concentration is approximately 0.5 mM -5 mM, and K^+ concentration is approximately 5 mM -30 mM.

[1] = tested on: maximal electroshock-induced epilepsy model; experiment: Maximal electroshock-induced epilepsy model, behavioral pharmacodynamics; assay type: in vivo; details: dose 5 mg/kg, oral, one hour before electrical stimulation; male CD-1 mice
Description: Assay Example 2: Evaluation of the behavioral pharmacodynamics of the test compounds in a maximal electroshock-induced epilepsy model
This study used behavioral tests in male CD-1 mice to investigate the effects of test compounds on acute epileptic seizures behavior induced by maximal electroshock.
Male CD-1 mice (25 to 35g) were used as the experimental animals and fed with standard feed (Beijing Vital River Laboratory Animal Technology Co., Ltd.).
After arriving at the animal facility, the experimental animals needed to acclimatize for at least one week. The mice were observed daily for vital signs, and randomly divided into groups according to their body weights one day before the drug administration. One hour before the electrical stimulation, different dosages of the test compound were orally administered to each group. On the day of the assay, the male CD-1 mice in each group were anesthetized locally at the cornea with 2% lidocaine. Then, silver bipolar electrodes were used to electrically stimulate the cornea of the mice with 18 mA, 60 Hz, a pulse width of 0.6 ms, and a stimulation time of 1 s to induce seizures. Subsequently, the latency of seizures and the duration of limb rigidity in mice after the electrical stimulation were observed, and the protection rate from seizures for each group was statistically analyzed.

[2] = Pharmacokinetic evaluation in mice (IV and PO); assay type: in vivo; details: mouse, plasma, CD-1 mice; for half-life: IV, read-out: Half-life T1/2 (IV) (converted); for AUC(0-t): PO, read-out: Area under the concentration-time curve AUC0-last PO; for bioavailability: read-out: Bioavailability F; for clearance: read-out: Clearance CL; for Cmax: read-out: Peak plasma concentration Cmax; for Vd: read-out: Volume of distribution Vdss
Experimental: Test Method 2: Pharmacokinetic Evaluation in Mice
Assay method: Test compounds were mixed with 5% DMSO / 60% polyethylene glycol (PEG400) / 35% water, vortexed and sonicated to obtain a clear 0.2 mg/mL solution, which was then filtered through a microporous membrane before use. Male CD-1 mice weighing 25-35 g were selected. The candidate compound solution was administered intravenously at a dose of 1 mg/kg. The candidate compound solution was orally administered at a dose of 5 mg/kg after fasting. Blood samples (25 µL each) were collected at 0.083, 0.25, 0.5, 1, 2, 4, 8, 12 and 24 hours after administration, and placed into commercial anticoagulant tubes pre-containing EDTA-K2. The tubes were centrifuged for 10 minutes to separate plasma, which was then stored at -60°C. The content of the target compound in plasma samples was determined by LC/MS/MS method, and pharmacokinetic parameters were calculated using Phoenix WinNonlin software (Pharsight, USA).
Tlast: time of the last detection point. AUC0-last: (Area Under the Concentration-Time Curve) refers to the area enclosed by the plasma drug concentration curve and the time axis. F (Bioavailability) is a measure of the rate and extent to which a drug is absorbed into the systemic circulation, serving as a critical indicator for evaluating the degree of drug absorption. […]

T1 sequence (O43526 whole entry): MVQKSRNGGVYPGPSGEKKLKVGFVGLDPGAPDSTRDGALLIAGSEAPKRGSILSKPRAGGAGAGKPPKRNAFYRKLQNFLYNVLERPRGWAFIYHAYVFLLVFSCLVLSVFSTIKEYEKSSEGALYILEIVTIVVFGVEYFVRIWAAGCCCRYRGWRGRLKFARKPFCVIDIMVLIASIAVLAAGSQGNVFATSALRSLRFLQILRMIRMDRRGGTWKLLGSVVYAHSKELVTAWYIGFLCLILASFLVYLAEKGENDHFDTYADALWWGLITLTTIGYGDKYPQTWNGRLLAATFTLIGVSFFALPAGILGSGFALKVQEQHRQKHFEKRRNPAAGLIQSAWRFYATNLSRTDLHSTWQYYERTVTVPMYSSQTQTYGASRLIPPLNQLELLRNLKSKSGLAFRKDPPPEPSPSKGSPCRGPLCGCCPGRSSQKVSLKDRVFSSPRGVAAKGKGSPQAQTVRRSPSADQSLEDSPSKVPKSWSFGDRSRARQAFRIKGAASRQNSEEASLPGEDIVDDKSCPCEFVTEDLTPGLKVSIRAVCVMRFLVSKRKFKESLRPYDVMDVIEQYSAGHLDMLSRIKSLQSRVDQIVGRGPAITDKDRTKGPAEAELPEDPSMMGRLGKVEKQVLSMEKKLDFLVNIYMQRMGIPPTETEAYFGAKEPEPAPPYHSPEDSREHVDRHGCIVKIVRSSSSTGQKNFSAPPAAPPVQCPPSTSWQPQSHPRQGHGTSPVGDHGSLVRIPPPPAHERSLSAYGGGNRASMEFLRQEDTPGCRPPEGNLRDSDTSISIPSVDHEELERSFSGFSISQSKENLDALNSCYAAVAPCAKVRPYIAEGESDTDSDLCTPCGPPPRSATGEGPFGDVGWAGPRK
T1 sequence (O43525 whole entry): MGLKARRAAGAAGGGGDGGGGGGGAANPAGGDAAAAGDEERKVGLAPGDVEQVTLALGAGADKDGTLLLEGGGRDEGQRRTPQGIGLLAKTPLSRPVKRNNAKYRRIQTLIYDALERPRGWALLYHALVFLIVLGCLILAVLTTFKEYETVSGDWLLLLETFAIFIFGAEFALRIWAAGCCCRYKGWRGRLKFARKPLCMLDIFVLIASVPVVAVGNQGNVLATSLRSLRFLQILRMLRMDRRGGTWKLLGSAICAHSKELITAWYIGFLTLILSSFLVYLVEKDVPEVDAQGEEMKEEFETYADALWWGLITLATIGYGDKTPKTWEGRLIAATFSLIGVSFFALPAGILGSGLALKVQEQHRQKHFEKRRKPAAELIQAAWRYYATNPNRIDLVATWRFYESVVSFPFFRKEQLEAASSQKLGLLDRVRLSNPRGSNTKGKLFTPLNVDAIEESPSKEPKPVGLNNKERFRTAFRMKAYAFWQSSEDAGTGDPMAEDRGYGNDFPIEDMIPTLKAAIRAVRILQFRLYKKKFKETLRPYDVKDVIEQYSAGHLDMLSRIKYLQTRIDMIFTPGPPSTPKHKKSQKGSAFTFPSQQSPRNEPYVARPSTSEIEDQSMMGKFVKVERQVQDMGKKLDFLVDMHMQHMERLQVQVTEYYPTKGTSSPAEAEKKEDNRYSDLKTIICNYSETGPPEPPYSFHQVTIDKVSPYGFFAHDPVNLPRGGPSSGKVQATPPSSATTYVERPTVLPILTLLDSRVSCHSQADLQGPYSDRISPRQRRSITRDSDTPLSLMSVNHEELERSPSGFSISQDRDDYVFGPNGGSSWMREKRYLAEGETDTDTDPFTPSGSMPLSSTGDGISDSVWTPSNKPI

| Structure (SMILES) | EC50 (hKCNQ2/3) [nM] | Seizure incidence (%) [1] [%] | half-life ([2]; dose IV:1, PO:5 mg/kg) [h] | AUC(0-t) ([2]; dose IV:1, PO:5 mg/kg) [µM·h] | bioavailability ([2]; dose IV:1, PO:5 mg/kg) [%] | clearance ([2]; dose IV:1, PO:5 mg/kg) [mL/min/kg] | Cmax ([2]; dose IV:1, PO:5 mg/kg) [nM] | Vd ([2]; dose IV:1, PO:5 mg/kg) [L/kg] | half-life ([2]; dose IV:0.5, PO:2 mg/kg) [h] | bioavailability ([2]; dose IV:0.5, PO:2 mg/kg) [%] | clearance ([2]; dose IV:0.5, PO:2 mg/kg) [mL/min/kg] | Vd ([2]; dose IV:0.5, PO:2 mg/kg) [L/kg] | AUC(0-t) ([2]; dose IV:0.5, PO:2 mg/kg) [µM·h] | Cmax ([2]; dose IV:0.5, PO:2 mg/kg) [nM] |
| --- | --- | --- | --- | --- | --- | --- | --- | --- | --- | --- | --- | --- | --- | --- |
| Cc1nc(Nc2ccc3c(C)c(NC(=O)CC(C)(C)C)n(C)c3c2)ccc1F [Compound 41] | 290 | 0 | 0.7 | 21.4 | 78.2 | 8.9 | 4580 | 0.6 | – | – | – | – | – | – |
| Cc1c(NC(=O)CC(C)(C)C)n(C)c2cc(Nc3ccc(C(F)(F)F)cc3)ccc12 [Compound 5] | 520 | 16.7 | – | – | – | – | – | – | 5.9 | 64 | 9.1 | 3.97 | – | – |
| Cc1c(NC(=O)CC(C)(C)C)n(C)c2cc(Nc3ccc(F)cc3)ccc12 [Compound 1] | 960 | 16.7 | 1.63 | 4.57 | 83.9 | 41.8 | 596 | 5.06 | 1.83 | 79.6 | 34.8 | 5.16 | 2.04 | 322 |

— patent publication EP4810483A1, “6- AND 5-HETEROARYL DERIVATIVES AND USE THEREOF” (CMS Research & Development Pte. Ltd., priority 2023, dated 2025)
